Experimental data taken from patent US9045505B2, “Nitric oxide donors” (University of Otago, priority 2006, dated 2015).

Experiments:
[1] = system: liver mitochondria; assay: S-nitrosation of mitochondrial protein thiols (chemiluminescence SNO assay); type: biochemical, rat; conditions: 500 μM
Description: FIG. 11 is a series of graphs showing S-nitrosation of mitochondrial thiols by MitoSNAP. (a) Time course of S-nitrosation of mitochondrial proteins by MitoSNAP. Liver mitochondria (1 mg protein) were incubated in 1 ml KCl buffer supplemented with rotenone and succinate in the presence of 5 μM MitoSNAP. At various times mitochondria were treated with 10 mM N-ethylmaleimide (NEM), isolated by centrifugation and the S-nitrosothiol content assessed. Data are of a typical experiment showing means±range of duplicate samples for each time point, each measured in duplicate. The experiment was repeated twice. (b) S-nitrosation of mitochondrial proteins by different concentrations of MitoSNAP and SNAP. Aliquots of liver mitochondria were incubated with the indicated concentrations of MitoSNAP or SNAP for […] in the presence or absence of 500 nM FCCP and then assessed for S-nitrosothiol content as in (a). For the +NEM sample, 10 mM NEM was added to the mitochondria and 1 min later 5 μM MitoSNAP was added and incubated for a further 2.5 min. Data are of a typical experiment showing means±range of duplicate samples for each time point, each measured in duplicate. The experiment was repeated twice. (c) S-nitrosation of cellular protein thiols by MitoSNAP. C2C12 cells were preincubated for 5 min in 2 ml cell culture medium containing either 20 μM FCCP or DMSO carrier, then 5 μM MitoSNAP or SNAP was added. After further incubation for 5 min at 37° C. in the dark, the medium was removed and the content of S-nitrosated proteins was measured. Data are means±range of the duplicate determinations. […] (d) S-nitrosation of a mitochondria-enriched cell subfraction. C2C12 cells were preincubated for 5 min in cell culture medium containing either 20 μM FCCP or dimethylsulfoxide (DMSO) carrier, then 5 μM MitoSNAP was added. After 5 min at 37° C. in the dark, the medium was removed and the cells were processed to isolate a mitochondria-enriched fraction and S-nitrosated protein was then determined Data are mean±sem of triplicate determinations (+MitoSNO1), or mean±range of duplicate determinations (+FCCP). (e & f) Visualisation of S-nitrosated mitochondrial proteins by copper/ascorbate-dependent labelling of thiols with a Cy3 fluorophore. Liver (e) or heart (f) mitochondria (1 mg protein) were incubated in 1 ml KCl buffer supplemented with rotenone and succinate in the presence of no additions, 10 μM MitoSNAP or 500 μM diamide for 5 min. S-nitrosated thiols were then selectively tagged with Cy3 maleimide and protein (10 μg) was then separated on a 12.5% SDS PAGE gel which was stained with coomassie blue and scanned for Cy3 fluorescence. The Cy3 fluorescence (SNO) and coomassie staining (coomassie) of each gel is shown.
FIG. 13 is a trace and graph showing limited S-nitrosation of mitochondria by DetaNONOate. […] Where indicated 500 μM DetaNONOate was added and the concentration of NO^• was measured over time, before 5 μM OxyHb was added. […] Then protein pellets were resuspended and processed for analysis of protein S-nitrosothiols. Control incubations in the presence of 10 mM NEM were also carried out. Data are means±range of two independent experiments each being the average of four mitochondrial incubations.
Nitrite, nitric oxide and S-nitrosothiol measurements. Nitrite was analyzed by the Griess assay (Molecular Probes). Nitric oxide was measured using an NO^• electrode (World Precision Instruments Ltd, UK) connected to an Apollo 4000 Free Radical Analyser. The electrode was inserted into a stirred, sealed 3 ml chamber with a Clark type O2 electrode (Rank Brothers, UK) built into its base and was thermostatted at 37° C. The NO^• electrode was calibrated by adding SNAP to argon-purged, saturated CuCl. OxyHb was prepared by reduction of bovine methemoglobin with sodium dithionite.

[2] = system: HeLa cells; assay: Cell hypoxia experiment, extracellular pO2 by fluorescence quenching oximetry; type: cell-based; conditions: 1% O2, 30 min incubation, compared to untreated controls
Description: FIG. 10 is a series of traces and graphs showing the effect of MitoSNAP on respiration in cells. (a-d) Jurkat cells (55×10^6 cells) were incubated in PBS supplemented with 25 mM Hepes pH 7.2 (NaOH), 1 mM sodium pyruvate, 10 μM neocuproine and 100 μM DTPA in the stirred 2.5 ml chamber of an oxygen electrode at 37° C. with 5 μM MitoSNAP (a), MitoNAP (b), SNAP (c) or MitoSNAP and FCCP (500 nM) (d). Where indicated 5 μM OxyHb was added. Traces show typical experiments that were repeated at least three times. Sections of the 02 electrode trace where OxyHb was added for (a) and (b) have been expanded 4-fold in the vertical dimension to facilitate inspection. […] Cellular pO2 values, measured by fluorescence quenching oximetry and expressed as mean±sd, are shown. […]
HeLa cells were seeded and grown to 100% confluence with 15 ml medium/dish on 165 cm^2 dishes. […] Extracellular pO2 measurements were taken by fluorescence quenching oximetry (Oxylite-2000; Oxford Optronix). […]
To evaluate the selective uptake of MitoSNAP by mitochondria within cells, the effect of MitoSNAP on respiration by Jurkat cells, a T lymphocyte cell line that grows in suspension, was measured using an O2 electrode (FIG. 10). […] Then the effects of a further 30 min incubation with MitoSNAP, MitoNAP or the mitochondrial inhibitor myxathiazol on the steady-state extracellular pO2 was assessed by fluorescence quenching oximetry (FIG. 10e).

[3] = system: rat liver mitochondria; assay: Membrane potential-dependent uptake into isolated mitochondria (TPP-selective electrode); type: biochemical
Description: FIG. 8 is a trace showing the uptake of MitoSNAP and MitoNAP by energized mitochondria measured using an ion-selective electrode. For (a) and (b) mitochondria (2 mg protein/ml) were incubated in KCl buffer supplemented with rotenone in a stirred 3 ml chamber thermostatted at 37° C. and shielded from ambient light. An electrode selective for the TPP cation was inserted and calibrated by five sequential 1 μM additions of MitoNAP (a) or MitoSNAP (b). Succinate (10 mM) was then added to energize the mitochondria, followed by the uncoupler FCCP (0.5 μM). Rapid uptake of MitoNAP by energized mitochondria was observed and this was reversed by abolishing the membrane potential with the uncoupler FCCP (a). Energised mitochondria also rapidly accumulated MitoSNAP (b). However, in contrast to MitoNAP, uncoupling apparently led to only partial release of the accumulated MitoSNAP (b). This apparent incomplete release of MitoSNAP on uncoupling is presumably because MitoSNAP is converted to MitoNAP within mitochondria and this generates a different response from the electrode.
(§1) Mitochondrial incubations were usually in KCl buffer (120 mM KCl, 10 mM HEPES, 1 mM EGTA, 100 μM N,N-bis(2-bis[carboxymethyl]aminoethyl) glycine (DTPA) and 10 μM neocuproine, pH 7.2) with 10 mM succinate and 4 μg/ml rotenone in the dark at 37° C., unless stated otherwise. An electrode selective for the TPP moiety of MitoSNAP and MitoNAP was made and used as described previously (Asin-Cayuela, J., Manas, A. R., James, A. M., Smith, R. A. & Murphy, M. P. Fine-tuning the hydrophobicity of a mitochondria-targeted antioxidant. FEBS Letts. 571, 9-16 (2004)). Respiration rates were measured in a Clark type O2 electrode (Rank Brothers, UK). To measure GSH and GSSG, mitochondria (1 mg protein/ml) were incubated with 0-10 μM MitoSNO1 or MitoNAP for 10 min, pelleted by centrifugation and the GSH and GSSG contents assessed by the recycling assay (Scarlett, J. L., Packer, M. A., Porteous, C. M. & Murphy, M. P. Alterations to glutathione and nicotinamide nucleotides during the mitochondrial permeability transition induced by peroxynitrite. Biochem. Pharmacol. 52, 1047-1055 (1996)). The measurement of exposed mitochondrial protein thiols is described below.
Rat liver mitochondria (1 mg protein/ml) in KCl buffer was incubated at 37° C. with 5 μM MitoSNO. 1 μM additions of MitoSNO were made sequentially before addition of 10 mM succinate. 200 nM FCCP was then added to uncouple the mitochondria. The concentrations of O2 and MitoSNO in solution were measured simultaneously using a Clark-type O2 electrode in combination with an ion-selective electrode for triphenylphosphonium cation (TPP^+). […] This can be seen in FIG. 3.
When succinate was added, the mitochondria started respiring and set up a Δψ, which caused a decrease in the MitoSNO concentration, as detected by the ion-selective electrode (FIG. 3). When the mitochondria were uncoupled by FCCP, a concomitant increase in the concentration of MitoSNO, or its derivatives, in the medium was detected by the ion-selective electrode. The amount of MitoSNO taken up into the mitochondria from the trace in FIG. 3 corresponds to ˜2.5 μM of the initial external concentration of 5 μM. Therefore 7.5 nmol MitoSNO have been taken up into 3 mg protein, and as the mitochondrial volume is ˜0.5 μl/mg protein (Brown, G. C. and Brand, M. D. Biochem J., 1985, 225, 399-405), the concentration of MitoSNO within mitochondria is ˜5 mM. This represents a 2000 fold concentration relative to the 2.5 μM present in the external medium, and is consistent with a Nernstian uptake of MitoSNO.

[4] = system: liver mitochondria; assay: Exposed protein thiols, glutathionylation and GSH/GSSG in liver mitochondria; type: biochemical, rat; conditions: mitochondria; MitoSNAP 5 μM
Description: as §1
Small molecules were removed by centrifugation through MicroBioSpin Columns (cut off=6 kDa), the eluate was clarified by centrifugation (2 min at 10,000×g) and protein thiols measured in triplicate by mixing 10 μl sample or GSH standard with 160 μl of 200 μM dithionitrobenzoic acid (DTNB) in 80 mM NaPi, 1 mM EDTA, pH 8 in a 96 well plate and absorbance at 412 nm was measured after 30 min at room temperature and the thiol content determined from the GSH standard curve. The protein concentration was measured in parallel by the bicinchonininc assay using BSA as a standard.
The interaction of MitoSNAP with mitochondrial thiol proteins is likely to initiate a dynamic process that may lead to other protein thiol modifications, such as disulfide formation, glutathionylation, sulfenylation or sulfenylamide formation, in addition to persistent S-nitrosation. To assess these, the content of reactive, solvent-exposed thiols on native liver mitochondrial proteins was measured. […] This is consistent with the finding that the maximum extent of mitochondrial protein S-nitrosation by 5 μM MitoSNAP (˜500 pmol SNO/mg protein; FIG. 11) was only ˜1% of the total number of protein thiols available. A small amount of MitoSNAP binding to mitochondrial thiol proteins through the formation of mixed disulfides was detectable by immunoblotting.

[5] = system: liver or heart mitochondria; assay: Visualisation of S-nitrosated mitochondrial proteins by Cy3 maleimide labelling; type: biochemical, rat; conditions: 10 μM MitoSNAP or 500 μM diamide, 5 min
Description: FIG. 11 is a series of graphs showing S-nitrosation of mitochondrial thiols by MitoSNAP. (a) Time course of S-nitrosation of mitochondrial proteins by MitoSNAP. Liver mitochondria (1 mg protein) were incubated in 1 ml KCl buffer supplemented with rotenone and succinate in the presence of 5 μM MitoSNAP. At various times mitochondria were treated with 10 mM N-ethylmaleimide (NEM), isolated by centrifugation and the S-nitrosothiol content assessed. Data are of a typical experiment showing means±range of duplicate samples for each time point, each measured in duplicate. The experiment was repeated twice. (b) S-nitrosation of mitochondrial proteins by different concentrations of MitoSNAP and SNAP. Aliquots of liver mitochondria were incubated with the indicated concentrations of MitoSNAP or SNAP for […] in the presence or absence of 500 nM FCCP and then assessed for S-nitrosothiol content as in (a). […] Data are of a typical experiment showing means±range of duplicate samples for each time point, each measured in duplicate. […] After further incubation for 5 min at 37° C. in the dark, the medium was removed and the content of S-nitrosated proteins was measured. […] S-nitrosated thiols were then selectively tagged with Cy3 maleimide and protein (10 μg) was then separated on a 12.5% SDS PAGE gel which was stained with coomassie blue and scanned for Cy3 fluorescence. […]

NCCN(CCN)/[N+]([O-])=N/O [Deta-NONOate, 3,3-bis(aminoethyl)-1-hydroxy-2-oxo-1-tri azene, reference compound]
NO concentration generated compared with 5 μM MitoSNAP [1]: five to ten-fold greater | S-nitrosation less than that caused by 5 μM MitoSNAP [1]: ~30 fold | S-nitrosation of mitochondrial proteins ([1]; 5 min): ~20 pmol SNO/mg protein

CO/C(=C/C(N)=O)[C@H](C)[C@H](/C=C/c1csc(-c2csc([C@@H](C)/C=C/C=C/C(C)C)n2)n1)OC [myxathiazol, reference compound]
effect on steady-state extracellular pO2 during hypoxia [2]: increased extracellular O2

O=NSCCCC[P+](c1ccccc1)(c1ccccc1)c1ccccc1.[Br-] [MitoSNO]
amount taken up into 3 mg protein ([3]; 5 μM MitoSNO, succinate): 7.5 nmol | uptake by isolated mitochondria ([3]; energized with 10 mM succinate, reversed by FCCP): taken up by isolated mitochondria | concentration within mitochondria ([3]; mitochondrial volume ~0.5 μl/mg protein): ~5 mM | amount taken up into the mitochondria, as part of the initial external concentration of 5 μM ([3]; rat liver mitochondria 1 mg protein/ml, 5 μM MitoSNO, succinate): ~2.5 µM | effect on mitochondrial respiration ([3]; rat liver mitochondria, 5 μM MitoSNO): inhibited respiration by NO release | concentration relative to the external medium ([3]; relative to 2.5 μM in the external medium): 2000 fold

CN(C)C(=O)/N=N/C(=O)N(C)C [diamide, reference compound]
protein-glutathione mixed disulfides (glutathionylation) [4]: extensive glutathionylation | Cy3 labelling of S-nitrosated proteins [5]: did not label proteins
